Consider eleven molecules from patent US6472418B1, “Non-peptide NK1 receptors antagonists” (Warner-Lambert Company, priority 1998, dated 2002).

For orientation: IC50 means the midpoint of a concentration-inhibition curve. As a reminder, the melting point is the temperature of the solid-liquid transition.

The target in one series is T1, Human NK1 Receptor (Homo sapiens, UniProt P25103).
T1 construct: endogenous in cells; host or cells: Human lymphoma IM9 cells (whole cells)
Briefly: In Vitro Human NK1 Receptor Binding Assay ([125I]Bolton-Hunter substance P displacement, IM9 cells). The settings on record: Human lymphoma IM9 cells, [125I]Bolton-Hunter substance P (0.05-0.1 nM), 50 min at 21° C.; Table 1; read-out: NK1 binding IC50. A digest of the protocol: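 Radioligand displacement on whole IM9 human lymphoma cells (2.5×10^6 cells/mL) using [125I]Bolton-Hunter substance P (0.05-0.1 nM), 50 min at 21° C in Tris pH 7.4/MnCl2 buffer with protease inhibitors. Non-specific binding defined by […] [Sar9, Met(O2)11] substance P. Filtration, gamma counting, iterative curve fitting.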

T1 sequence (P25103 whole entry): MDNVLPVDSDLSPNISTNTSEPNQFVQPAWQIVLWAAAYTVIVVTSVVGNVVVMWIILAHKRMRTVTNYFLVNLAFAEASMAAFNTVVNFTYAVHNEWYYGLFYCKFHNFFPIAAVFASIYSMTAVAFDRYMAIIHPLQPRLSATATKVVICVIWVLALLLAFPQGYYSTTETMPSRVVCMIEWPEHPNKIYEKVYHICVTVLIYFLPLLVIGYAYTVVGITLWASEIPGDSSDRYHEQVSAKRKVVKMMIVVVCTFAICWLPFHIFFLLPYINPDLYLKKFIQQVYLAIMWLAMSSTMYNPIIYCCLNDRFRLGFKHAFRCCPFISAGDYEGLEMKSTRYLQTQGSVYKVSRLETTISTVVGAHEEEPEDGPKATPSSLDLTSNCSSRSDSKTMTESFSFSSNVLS

Molecule `C[C@H](NC(=O)[C@@H](Cc1c[nH]c2ccccc12)NCc1nc2ccccc2[nH]1)c1ccccc1` (relative stereo) [Example 9, 2-[(1H-Benzoimidazol-2-ylmethyl)-amino]-3-(1H-indol-3-yl)-N-(1-phenyl-ethyl)-propionamide, [R-(R*,S*)]] came in with a melting point of 148 to 152.5 °C. The IC50 on Human NK1 Receptor was determined as 112 nM.

The molecule `C[C@H](NC(=O)[C@@H](Cc1c[nH]c2ccccc12)NCc1cnc2ccccc2c1)c1ccccc1` (relative stereo) [Example 11, 3-(1H-Indol-3-yl)-N-(1-phenyl-ethyl)-2-[(quinolin-3-ylmethyl)-amino]-propionamide, [R-(R*,S*)]] had a melting point of 161 to 163 °C. Further, on Human NK1 Receptor, the IC50 turned out to be 46 nM.

As to `C[C@H](NC(=O)[C@@](C)(Cc1c[nH]c2ccccc12)NCc1cc2ccccc2o1)c1ccccc1` (relative stereo) [Example 18, 2-[(Benzofuran-2-ylmethyl)-amino]-3-(1H-indol-3-yl)-2-methyl-N-(1-phenyl-ethyl)-propionamide, [R-(R*,S*)]], the melting point lay in the range of 118 to 121 °C. Besides, the half-maximal inhibitory concentration (IC50) on Human NK1 Receptor amounted to 4.4 nM.

Consider `C[C@H](NC(=O)[C@@](C)(Cc1c[nH]c2ccccc12)NCc1coc2ccccc12)c1ccccc1` (relative stereo) [Example 19, 2-[(Benzofuran-3-ylmethyl)-amino]-3-(1H-indol-3-yl)-2-methyl-N-(1-phenyl-ethyl)-propionamide, [R-(R*,S*)]], for which the melting point was in the range of 104 to 106 °C. For the same molecule, the half-maximal inhibitory concentration (IC50) at Human NK1 Receptor was 58 nM.

`C[C@H](NC(=O)[C@@](C)(Cc1c[nH]c2ccccc12)NCc1ccc[nH]1)c1ccccc1` (relative stereo) [Example 20, 3-(1H-Indol-3-yl)-2-methyl-N-(1-phenyl-ethyl)-2-[(1H-pyrrol-2-ylmethyl)-amino]-propionamide, (R-(R*,S*)]] gave a melting point of 123 to 133 °C. For the same molecule, the IC50 on Human NK1 Receptor worked out at 815 nM.

`C[C@H](NC(=O)[C@@](C)(Cc1c[nH]c2ccccc12)NC(=O)NCc1cc2ccccc2o1)c1ccccc1` (relative stereo) [Example 22, 2-(3-Benzofuran-2-ylmethyl-ureido)-3-(1H-indol-3-yl)-2-methyl-N-(1-phenyl-ethyl)-propionamide, [R-(R*,S*)]]: the melting point lay in the range of 176 to 178 °C. For the same molecule, on Human NK1 Receptor, the IC50 was determined as 2.9 nM.

Regarding `CC(NC(=O)[C@@](C)(Cc1c[nH]c2ccccc12)NCc1cc2ccccc2o1)c1ccn(C)c1` (stereo in doubt) [Example 2, 2-[(Benzofuran-2-ylmethyl)-amino]-3-(1H-indol-3-yl)-2-methyl-N-[1-(1-methyl-1H-pyrrol-3-yl)-ethyl]-propionamide, [R-(R*,R*)] and [R-(R*,S*)]], the melting point was in the range of 53 to 57 °C. For the same molecule, the half-maximal inhibitory concentration (IC50) on Human NK1 Receptor was determined as 23 nM.

Regarding `CC(C)(NC(=O)[C@@](C)(Cc1c[nH]c2ccccc12)NCc1cc2ccccc2o1)c1ccccc1` [Example 1, 2-[(Benzofuran-2-ylmethyl)-amino]-3-(1H-indol-3-yl)-2-methyl-N-(1-methyl-1-phenyl-ethyl)-propionamide, (R)], the melting point fell in the range of 57 to 62 °C. Further, the IC50 on Human NK1 Receptor is 591 nM.

As for `CN(C)C[C@H](NC(=O)[C@@](C)(Cc1c[nH]c2ccccc12)NCc1cc2ccccc2o1)c1ccccc1` [Example 4, 2-[(Benzofuran-2-ylmethyl)-amino]-N-(2-dimethylamino-1-phenyl-ethyl)-3-(1H-indol-3-yl)-2-methyl-propionamide, (R,R)], the melting point lay in the range of 130 to 134 °C. Further, the IC50 on Human NK1 Receptor came to 1210 nM.

The molecule `C[C@](Cc1c[nH]c2ccccc12)(NCc1cc2ccccc2o1)C(=O)NCc1cccc(O)c1` [Example 5, 2-[(Benzofuran-2-ylmethyl)-amino]-N-(3-hydroxy-benzyl)-3-(1H-indol-3-yl)-2-methyl-propionamide, R] showed a melting point of 60 to 69 °C. In addition, the IC50 on Human NK1 Receptor is 295 nM.

In the case of `C[C@H](NC(=O)[C@@H](Cc1c[nH]c2ccccc12)NCc1cc2ccccc2s1)c1ccccc1` [Example 10, 2-[(Benzo[b]thiophen-2-ylmethyl)-amino]-3-(1H-indol-3-yl)-N-(1-phenyl-ethyl)-propionamide], the melting point was in the range of 102 to 108 °C. Further, the IC50 on Human NK1 Receptor worked out at 51 nM.
